Measurements published in PubChem BioAssay AID1596 (NINDS Approved Drug Screening Program, 2009).
Records with an inconclusive call do not appear.

Each molecule was assayed on PC12 polyQ huntingtin toxicity, LDH release (assay: mutant huntingtin toxicity rescue agents – PC12 cells, LDH release, LDH100, dose response (AID 1596)).
Molecule `C=C[C@H]1CN2CC[C@H]1C[C@@H]2[C@H](O)c1ccnc2ccccc12` has an EC50 of 60 µM.
`CC(=O)c1c(O)c(C)c(O)c2c1OC1=CC(=O)C(C(C)=O)C(=O)C12C` (stereo unspecified) was tested, and the EC50 was 60 µM.
`CC(=O)Oc1ccc(Cl)c2cccnc12` showed an EC50 of 8 µM.
For `CC(=O)Nc1ccc(S(=O)(=O)Nc2ccc([N+](=O)[O-])cc2)cc1`, the EC50 was 20 µM.
`C[N+](C)(C)CCOC(N)=O` was tested, and the EC50 was 1 µM.
In the case of `Oc1c(Cl)cc(Cl)cc1Sc1cc(Cl)cc(Cl)c1O`, the EC50 is reported as 20 µM.
`Cc1cc(C2CCCCC2)n(O)c(=O)c1` showed an EC50 of 2.5 µM.
`Nc1c2c(nc3ccccc13)CCCC2` was tested, and the EC50 was 60 µM.
`Oc1cccc2cccnc12` showed an EC50 of 20 µM.
With `CN(C)c1ccc(C(=C2C=CC(=[N+](C)C)C=C2)c2ccc(N(C)C)cc2)cc1` the EC50 was 0.2 µM.
`CCCCC[C@H](CC(=O)NO)C(=O)N[C@H](C(=O)N1CCC[C@H]1CO)C(C)C` was tested, and the EC50 was 100 µM.
With `CC(=O)OCC(=O)[C@@]1(O)[C@H](C)CC2C3CCC4=CC(=O)C=C[C@]4(C)[C@@]3(F)[C@@H](O)C[C@@]21C` (stereo partly specified) the EC50 was 0.8 µM.
`CC(NCCC(c1ccccc1)c1ccccc1)c1ccccc1` (stereo unspecified) gave an EC50 of 10 µM.
`CCCCC(=O)OC1(C(=O)CO)C(C)CC2C3CCC4=CC(=O)C=CC4(C)[C@@]3(F)[C@@H](O)CC21C` (stereo partly specified) was tested, and the EC50 was 60 µM.
Work on `CN1CCc2cccc3c2C1Cc1ccc(O)c(O)c1-3` (stereo unspecified) yielded an EC50 of 10 µM.
Molecule `NC(=O)N/N=C/c1ccc([N+](=O)[O-])o1` has an EC50 of 20 µM.
`CC(C)CC1C(=O)N2CCC[C@H]2C2(O)O[C@](NC(=O)C3C=C4c5cccc6[nH]c(Br)c(c56)C[C@H]4N(C)C3)(C(C)C)C(=O)N12` (stereo partly specified) showed an EC50 of 30 µM.
`CN[C@@H]1[C@H](OC2[C@H](O[C@H]3[C@H](O)[C@@H](O)[C@H](N=C(N)N)[C@@H](O)[C@@H]3N=C(N)N)O[C@@H](C)[C@]2(O)C=O)O[C@@H](CO)[C@H](O)[C@H]1O` (stereo partly specified) gave an EC50 of 100 µM.
In the case of `COc1ccc(C[C@H](N)C(=O)N[C@@H]2[C@@H](CO)OC(n3cnc4c(N(C)C)ncnc43)[C@@H]2O)cc1` (stereo partly specified), the EC50 is reported as 10 µM.
`CCCCCCCCCCCCCCCCCC(=O)OC(CC(=O)O)C[N+](C)(C)C` (stereo unspecified) showed an EC50 of 100 µM.
For `CNC(=O)Oc1ccc2c(c1)[C@]1(C)CCN(C)[C@@H]1N2C`, the EC50 was 100 µM.
With `CC(Cc1ccc(O)c(O)c1)C(C)Cc1ccc(O)c(O)c1` (stereo unspecified) the EC50 was 8 µM.
Work on `O=C(c1ccccc1)c1ccc2n1CCC2C(=O)O` (stereo unspecified) yielded an EC50 of 8 µM.
Molecule `CC[C@H]1OC(=O)[C@H](C)[C@@H](O[C@H]2C[C@@](C)(OC)[C@@H](O)[C@H](C)O2)[C@H](C)[C@@H](O[C@@H]2O[C@H](C)C[C@H](N(C)C)[C@H]2O)[C@](C)(O)C[C@@H](C)CN(C)[C@H](C)[C@@H](O)[C@]1(C)O` has an EC50 of 100 µM.
Work on `C[C@H]1c2cccc(O)c2C(O)=C2C(=O)[C@]3(O)C(O)=C(C(N)=O)C(=O)[C@@H](N(C)C)[C@@H]3[C@@H](O)[C@@H]21` yielded an EC50 of 60 µM.
`NC(=NCc1ccccc1)NC(=O)c1nc(Cl)c(N)nc1N` gave an EC50 of 100 µM.
Molecule `C[C@@]1(C(=O)O)CC[C@]2(C)CC[C@]3(C)C4=CC=C5C=C(O)C(=O)C=C5[C@]4(C)CC[C@@]3(C)[C@@H]2C1` has an EC50 of 0.5 µM.
Molecule `O=NN(CCCl)C(=O)NCCCl` has an EC50 of 4 µM.
In the case of `CN1CCc2c(c3ccccc3n2Cc2ccccc2)C1`, the EC50 is reported as 30 µM.
`COc1cc2ccc(=O)oc2cc1O` showed an EC50 of 30 µM.
For `CCN(CC)CCNc1ccc(CO)c2sc3ccccc3c(=O)c12`, the EC50 was 4 µM.
`COC12CC[C@@]3(C[C@@H]1C(C)(O)C(C)(C)C)[C@H]1Cc4ccc(O)c5c4[C@@]3(CCN1CC1CC1)[C@H]2O5` (stereo partly specified) was tested, and the EC50 was 100 µM.
`O=C(Nc1ccc([N+](=O)[O-])cc1Cl)c1cc(Cl)ccc1O` gave an EC50 of 1 µM.
In the case of `CN(C)CCOC(c1ccc(Cl)cc1)c1ccccn1` (stereo unspecified), the EC50 is reported as 1.5 µM.
`CC[C@@]1(O)C[C@H](OC2CC(N(C)C)C(OC3CC(O)C(OC4CCC(=O)C(C)O4)C(C)O3)C(C)O2)c2c(cc3c(c2O)C(=O)c2c(O)cccc2C3=O)[C@H]1C(=O)OC` (stereo partly specified) showed an EC50 of 4 µM.
`CO[C@@]12[C@@H]3NC3CN1C1=C(C(=O)C(N)=C(C)C1=O)[C@@H]2COC(N)=O` (stereo partly specified) gave an EC50 of 2.5 µM.
With `Oc1c(Cl)cc(Cl)c(Cl)c1Cc1c(O)c(Cl)cc(Cl)c1Cl` the EC50 was 10 µM.
`OCCN1CCN(CCCN2c3ccccc3Sc3ccc(Cl)cc32)CC1` showed an EC50 of 100 µM.
In the case of `CCCCCc1cc(O)c2c(c1)OC(C)(C)C1CC=C(C)CC21` (stereo unspecified), the EC50 is reported as 40 µM.
For `CN(C)[C@@H]1C(=O)C(C(N)=O)=C(O)[C@@]2(O)C(=O)C3=C(O)c4c(O)cccc4[C@@](C)(O)[C@H]3[C@H](O)[C@@H]12`, the EC50 was 100 µM.
For `O=c1cc(-c2ccc(O)cc2)oc2cc(O)cc(O)c12`, the EC50 was 40 µM.
With `CC(C)C(=O)Nc1ccc([N+](=O)[O-])c(C(F)(F)F)c1` the EC50 was 4 µM.
Molecule `CCOc1ccc2c(c1)C(C)=CC(C)(C)N2` has an EC50 of 8 µM.
`CCCCCc1cc(O)c2c(c1)OC(C)(C)c1ccc(C)cc1-2` was tested, and the EC50 was 40 µM.
Work on `COc1ccc(-c2coc3cc(O)cc(O)c3c2=O)cc1` yielded an EC50 of 60 µM.
`O=c1c2ccccc2[se]n1-c1ccccc1` was tested, and the EC50 was 6 µM.
`O=C1C=C2C(=CCOC2O)O1` (stereo unspecified) was tested, and the EC50 was 1 µM.
Molecule `O=C1C=CC(=C(c2ccc(O)cc2)c2ccc(O)cc2)C=C1` has an EC50 of 6 µM.
`CC(NC(=O)C(NC(=O)OCc1ccccc1)C(C)C)C(=O)NC(CC(=O)O)C(=O)OC(F)F` (stereo unspecified) was tested, and the EC50 was 20 µM.
`CNc1ccc2oc(C[C@@H]3OC4(CC[C@@H]3C)O[C@H](C(C)C(=O)c3ccc[nH]3)[C@H](C)C[C@H]4C)nc2c1C(=O)O` (stereo partly specified) showed an EC50 of 0.8 µM.
With `CC1(C)O[C@@H]2CC3C4C[C@H](F)C5=CC(=O)C=CC5(C)C4C(O)CC3(C)[C@]2(C(=O)CO)O1` (stereo partly specified) the EC50 was 100 µM.
Molecule `CC(C)=CCC1=C(O)c2ccccc2C(=O)C1=O` has an EC50 of 100 µM.
Work on `CC(C)(C)c1ccc(C(O)CCCN2CCC(C(O)(c3ccccc3)c3ccccc3)CC2)cc1` (stereo unspecified) yielded an EC50 of 8 µM.
With `O=c1[nH]c2ccccc2n1C1CCN(CCCC(c2ccc(F)cc2)c2ccc(F)cc2)CC1` the EC50 was 30 µM.
With `OCC(S)CS` (stereo unspecified) the EC50 was 10 µM.
Work on `CO/N=C(/C(=O)N[C@@H]1C(=O)N2C(C(=O)O)=C(COC(C)=O)CS[C@H]12)c1csc(N)n1` yielded an EC50 of 6 µM.
In the case of `Nc1c(Br)cc(Br)cc1CNC1CCC(O)CC1` (stereo unspecified), the EC50 is reported as 100 µM.
`C=C1C(=O)OC2C1CCC1(C)CCC=C(C)C21` (stereo unspecified) showed an EC50 of 4 µM.
In the case of `NCCCCNCCCN`, the EC50 is reported as 8 µM.
In the case of `C[C@@H]1C[C@@H]([C@H](O)CC2CC(=O)NC(=O)C2)C(=O)[C@@H](C)C1`, the EC50 is reported as 0.2 µM.
In the case of `CO[C@@H]1C[C@@H](C[C@H]2CC[C@H](C)[C@H]([C@@H](C)C(=O)O)O2)O[C@]2(O[C@](C)([C@H]3CC[C@@](C)(C4O[C@@H](C5O[C@@](O)(CO)[C@H](C)C[C@@H]5C)C[C@@H]4C)O3)C[C@H]2C)[C@@H]1C` (stereo partly specified), the EC50 is reported as 4 µM.
`CC[n+]1c(-c2ccccc2)c2cc(N)ccc2c2ccc(N)cc21` showed an EC50 of 4 µM.
Work on `CC(C)=CCCC1(C)C=Cc2c(O)c3c(c(CC=C(C)C)c2O1)OC12C(=CC4CC1C(C)(C)OC2(C/C=C(/C)C(=O)O)C4=O)C3=O` (stereo unspecified) yielded an EC50 of 0.3 µM.
`Cc1ccc(C(=O)C(C)CN2CCCCC2)cc1` (stereo unspecified) gave an EC50 of 6 µM.
In the case of `O=C(O)c1cc2cc(Cc3cccnc3)ccc2o1`, the EC50 is reported as 20 µM.
In the case of `CCCCCc1cc(O)c2c(c1)OC(C)(C)C1CCC(C)=CC21` (stereo unspecified), the EC50 is reported as 60 µM.
